Test results reported in US20200188361A1, “USE OF MITOCHONDRIAL ACTIVITY INHIBITORS FOR THE TREATMENT OF POOR PROGNOSIS ACUTE MYELOID LEUKEMIA” (UNIVERSITE DE MONTREAL, priority 2016, published 2020).
Structures can show the parent of a compound that is named as a salt. Where two headings read alike, the source gives them in different places.

What was measured:
[1] = tested on: HOX-high AML patient cells; experiment: Primary chemical screen of 60 compounds, cell dose-response viability assay (CellTiterGlo, 6 days); format: cell-based, human; details: for EC50: read-out: MEAN EC50 HOX-high
Experimental: (§1) frozen AML mono-nucleated cells were thawed at 37° C. in Iscove's modified Dulbecco's medium (IMDM) containing 20% FBS and DNase I (100 μg/mL).
(§2) All powders were dissolved in DMSO and diluted in culture medium immediately before use. Final DMSO concentration in all conditions was 0.1%. The 60 compounds were purchased from various suppliers including Santa Cruz, Selleckchem, Calbiochem, AdooQ Bioscience, Cayman chemical and Synkinase.
(§3) Patient cells were seeded in 384-well plates at a density of 5,000 cells in 50 μL per well. In the initial screen, compounds were added to seeded cells in serial dilutions (10 dilutions, 1:3, starting from 10 μM or 20 μM), in duplicates. Cells treated with 0.1% DMSO without additional compound were used as negative controls. Viable cell counts per well were evaluated after 6 days of culture using the CellTiterGlo® assay (Promega®) according to the manufacturer's instruction.
(§4) Using high expression of HOXA9 and HOXA10 as a surrogate for the detection of HOX-network-high patient samples, the survival of HOX-high versus HOX-med/low specimens contacted with 60 inhibitors targeting receptor tyrosine kinases (RTK), members of the RAS and PI3K pathways, was assessed (FIG. 2A, Table 4).

[2] = tested on: HOX-med/low AML patient cells; experiment: as above; format: cell-based, human; details: read-out: MEAN EC50 HOX-med/low
Experimental: as §1, §2, §3, §4

[3] = Homo sapiens, 144 h, primary screen, mean over HOX-high patient specimens, 6 days culture, top concentration 10 μM or 20 μM
[4] = ratio of mean EC50 HOX-high to mean EC50 HOX-med/low
[5] = Homo sapiens, 144 h, primary screen, mean over HOX-med/low patient specimens, 6 days culture, top concentration 10 μM or 20 μM
[6] = primary screen, mean over HOX-high patient specimens, 6 days culture, top concentration 10 μM or 20 μM
[7] = primary screen, mean over HOX-med/low patient specimens, 6 days culture, top concentration 10 μM or 20 μM

SMILES | EC50 [1, 3] | FOLD CHANGE High/Med-low [1, 4] | EC50 [2, 5] | EC50 [1, 6] | EC50 [2, 7] | also measured
Nc1cccc2c1CN(C1CCC(=O)NC1=O)C2=O (stereo not shown) [Lenalidomide] | 7.31 µM | 0.7 | 9.91 µM | – | – | –
Cc1ccc(NC(=O)c2ccc(CN3CCN(C)CC3)cc2)cc1Nc1nc(-c2cccnc2)cs1 [Masitinib] | 7.01 µM | 1.5 | 4.57 µM | – | – | –
Nc1ncnc2c1c(-c1cccc(OCc3ccccc3)c1)cn2C1CC(CN2CCC2)C1 (stereo not shown) [NVPAEW541] | – | 1.0 | – | 1.73 µM | 1.77 µM | –
Cc1nc2cc3nc(-c4cccs4)cnc3cc2n1C [AGL2043] | – | 1.1 | – | 8.88 µM | 8.38 µM | –
COc1ccc(Cl)c(Nc2nc3ccccc3nc2NS(=O)(=O)c2cccc(NC(=O)C(C)(C)N)c2)c1 [SAR245408 XL147] | > 10 µM | – | > 10 µM | – | – | –
Cc1ccc(Nc2c(C(N)=O)cnc3cc(-c4ccc(S(C)(=O)=O)cc4)ccc23)cc1C [cFMS Receptor Inhibitor III] | – | 1.1 | – | 8.86 µM | 7.97 µM | –
Cc1nc(Nc2ncc(C(=O)Nc3c(C)cccc3Cl)s2)cc(N2CCN(CCO)CC2)n1 [Dasatinib] | 0.774 µM | 2.4 | 0.322 µM | – | – | –
Cc1[nH]c(/C=C2\C(=O)Nc3cc(-c4ccccc4)ccc32)c(C)c1CCC(=O)O [PDGFR Tyrosine Kinase Inhibitor VII] | – | 2.1 | – | 6 µM | 2.84 µM | –
NC(=O)N1CCC(CC(=O)N2CCC([C@H]3c4ncc(Br)cc4CCc4cc(Cl)cc(Br)c43)CC2)CC1 [Lonafarnib] | 2.49 µM | 0.7 | 3.67 µM | – | – | –
CC(C)(C)c1cc(NC(=O)Nc2ccc(-c3cn4c(n3)sc3cc(OCCN5CCOCC5)ccc34)cc2)no1 [Quizartinib] | 0.23 µM | 0.4 | 0.52 µM | – | – | –
CNC(=O)c1cc(Oc2ccc(NC(=O)Nc3ccc(Cl)c(C(F)(F)F)c3)cc2)ccn1 [Sorafenib Tosylate] | 1.1 µM | – | 0.936 µM | – | – | FOLD CHANGE High/Med-low [1]: 1.2
O=c1cc(N2CCNCC2)oc2c(-c3ccccc3)cccc12 [LY303511] | > 10 µM | – | > 10 µM | – | – | –
Cn1cc(C2=C(c3cn(C4CCN(Cc5ccccn5)CC4)c4ccccc34)C(=O)NC2=O)c2ccccc21 [Enzastaurin] | 9.84 µM | 1.0 | > 10 µM | – | – | –
Cc1ccc(NC(=O)c2cccc(N(C)C)c2)cc1NC(=O)c1ccc(O)cc1 [ZM336372] | – | 1.1 | – | > 10 µM | 8.88 µM | –
COc1cc2nccc(Oc3ccc(NC(=O)Nc4ccc(F)cc4F)c(F)c3)c2cc1OC [Ki8751] | – | 1.1 | – | 0.844 µM | 0.768 µM | –
Cc1cn(-c2cc(NC(=O)c3ccc(C)c(Nc4nccc(-c5cccnc5)n4)c3)cc(C(F)(F)F)c2)cn1 [Nilotinib] | 3.92 µM | 1.0 | 3.81 µM | – | – | –
Nc1[nH]nc2nnc(-c3c(-c4ccccc4)nn4ccccc34)cc12 [ERK Inhibitor II FR180204] | – | 1.0 | – | > 10 µM | > 10 µM | –
CCN(CC)CCCCNc1ncc2cc(-c3cc(OC)cc(OC)c3)c(NC(=O)NC(C)(C)C)nc2n1 [PD173074] | – | 1.0 | – | 4.95 µM | 5.2 µM | –
N#CC(=C(/N)Sc1ccccc1N)/C(C#N)=C(\N)Sc1ccccc1N [U0126] | – | – | – | – | – | FOLD CHANGE High/Med-low [1]: 1.1; EC50 ([1]; Homo sapiens, 144 h): 4.48 µM; EC50 ([2]; Homo sapiens, 144 h): 4.11 µM
COc1cccc(-c2cc(=O)c3ccccc3o2)c1N [PD98059] | – | 1.0 | – | – | > 10 µM | –
C[C@]1(O)C[C@@H](c2nc(-c3ccc4ccc(-c5ccccc5)nc4c3)c3c(N)nccn32)C1 [OS1906 Linsitinib., Linsitinib] | 4.25 µM | 1.1 | 3.94 µM | – | – | –
COc1cc2ncnc(Nc3ccc(F)c(Cl)c3)c2cc1OCCCN1CCOCC1 [Gefitinib] | – | 0.9 | – | – | – | –
